Laboratory results: US10421774B2 (priority 2016, dated 2019)
Like-named read-outs stand apart in the source and are kept apart here.

How the values were obtained:
Experiment in all cases: microbe, parasite or virus in culture
Type in all cases: cell-based, HIV-1
[1] = test system: NLRepRlucP373S recombinant wild type (WT) virus
Description: (§1) Cells. MT-2 cells and 293T cells were obtained from the NIH AIDS Research and Reference Reagent Program. Cell lines were sub-cultured twice a week in either RPMI 1640 (MT-2) or DMEM (293T, HeLa) media supplemented with 10% heat inactivated fetal bovine serum (FBS), 100 units/mL of penicillin G and 100 μg/mL of streptomycin. The DMEM medium was additionally supplemented with 10 mM HEPES buffer, pH 7.55, 2 mM L-glutamine and 0.25 μg/mL of amphotericin B.
(§2) Viruses. NLRepRluc virus contains the Renilla luciferase marker in place of the viral nef gene. The proviral plasmid pNLRepRluc was constructed at Bristol-Myers Squibb, starting from a proviral NL4-3 clone (B subtype) that was obtained from the NIH AIDS Research and Reference Reagent Program. The parental recombinant wild type (WT) virus (NLRepRlucP373S) was derived from NLRepRluc and contains the additional substitution of P373 for serine in Gag (within the SP1 spacer), the most common 373 variation in subtype B. Other recombinant viruses (A364V, V370A/ΔT371 and the “T3325 triple” (T332S/V362I+HIV-1 protease R41G)) were generated by site-directed mutagenesis of plasmid pNLRepRlucP373S to introduce those amino acid substitutions in Gag and protease. Recombinant virus DNA was then used to generate virus stocks by transfection of 293T cells (Lipofectamine PLUS kit, Invitrogen). Titers of virus stocks were determined using a luciferase assay (Dual-Luciferase® Reporter Assay System, Promega, Milwaukee, Wis., USA) endpoint.
(§3) Multiple cycle drug susceptibility assay. Pellets of MT-2 cells were infected with NLRepRlucP373S Gag site-directed viruses, where initial inocula of the reporter strains were normalized using equivalent endpoint luciferase activity signals. Such cell-virus mixtures were resuspended in medium, incubated for 1-hour at 37° C./CO2, and added to compound containing 96-well plates at a final cell density of 10,000 cells per well. The test compounds were 3-fold serially diluted in 100% DMSO, and assayed at a final DMSO concentration of 1%. After 4-5 day incubation at 37° C./CO2, virus yields were determined by Renilla luciferase activity (Dual-Luciferase® Reporter Assay System, Promega). The endpoint luminescence was detected on a Wallac Trilux (PerkinElmer).
(§4) The 50% inhibitory concentrations (EC50S) were calculated by using the exponential form of the median effect equation where Percent Inhibition=1/[1+(EC50/drug conc.^m], where m is a parameter that reflects the slope of the concentration-response curve. Background was taken as the residual signal observed upon inhibition at the highest concentration of a control protease inhibitor, NFV (3 μM).
as §4, with “The 90%” for “The 50%”, “concentrations (EC90S)” for “concentrations (EC50S)”, “where ECF=[(F/(100−F)]^1/H·EC50,” for “where Percent Inhibition=1/[1+(EC50/drug conc.^m],”, “where H” for “where m”

[2] = test system: A364V site directed mutant virus; conditions: for EC50: Human immunodeficiency virus 1, MT2, read-out: A364V EC50
Description: as §1, §2, §3
(§5) HIV-1 NL4-3 expressing Renilla luciferase gene was converted to the gag V370A/ΔT371 virus by site directed mutagenesis. A364V is a site directed mutant.
(§6) All three recombinant viruses were used as described above in the HIV cell culture assay for the NL4-3 virus.

gag V370A/ΔT371 virus = conditions: for EC50: Human immunodeficiency virus 1, MT2, read-out: V370A/ΔT371 EC50
Description: as §1, §2, §3, §5, §6

[3] = test system: T332S/V362I/Pr R41G virus; conditions: for EC50: Human immunodeficiency virus 1, MT2, read-out: T332S/V362I/pr41G EC50
Description: as §1, §2, §3
T332sN362I/Pr R41G (N14.3, B Clade) virus′ was obtained as follows: Selection for resistance of HIV-1 strain […] virus with the HIV maturation inhibitor (MI) compound
At passage 8 virus was harvested and sequenced.
as §6

[4] = Human immunodeficiency virus 1, MT2, read-out: WT EC50

Compound	EC50 [1, 4] [nM]	EC50 [2] [nM]	EC50 (gag V370A/ΔT371 virus) [nM]	EC50 [3] [nM]	EC50 ([1]; Human immunodeficiency virus 1, read-out: WT EC50) [nM]	EC90 ([2]; Human immunodeficiency virus 1, read-out: A364V EC90) [nM]	EC90 (gag V370A/ΔT371 virus; Human immunodeficiency virus 1, read-out: V370A/ΔT371 EC90) [nM]	EC90 ([3]; Human immunodeficiency virus 1, read-out: T332S/V362I/prR41G EC90) [nM]
C=C(C)[C@@H]1CC[C@]2(NCCN3CCS(=O)(=O)CC3)CC[C@]3(C)[C@H](CC[C@@H]4[C@@]5(C)CC=C(C6=CC[C@](COc7ncccc7C(N)=O)(C(=O)O)CC6)C(C)(C)[C@@H]5CC[C@]43C)[C@@H]12 [Example 24, (R)-1-(((3-carbamoylpyridin-2-yl)oxy)methyl)-4-((1R,3aS,5aR,5bR,7aR,11aS,11bR,13aR,13bR)-3a-((2-(1,1-dioxidothiomorpholino)ethyl)amino)-5a,5b,8,8,11a-pentamethyl-1-(prop-1-en-2-yl)-2,3,3a,4,5,5a,5b,6,7,7a,8,11,11a,11 b,12,13,13a,13b-octadecahydro-1H-cyclopenta[a]chrysen-9-yl)cyclohex-3-ene-1-carboxylic acid]	2	8	12	12				
C=C(C)[C@@H]1CC[C@]2(NCCN3CCS(=O)(=O)CC3)CC[C@]3(C)[C@H](CC[C@@H]4[C@@]5(C)CC=C(C6=CC[C@@](COc7ncccc7C#N)(C(=O)O)CC6)C(C)(C)[C@@H]5CC[C@]43C)[C@@H]12 [Example 25, (S)-1-(((3-cyanopyridin-2-yl)oxy)methyl)-4-((1R,3aS,5aR,5bR,7aR,11aS,11bR,13aR,13bR)-3a-((2-(1,1-dioxidothiomorpholino)ethyl)amino)-5a,5b,8,8,11a-pentamethyl-1-(prop-1-en-2-yl)-2,3,3a,4,5,5a,5b,6,7,7a,8,11,11a,11b,12,13,13a,13b-octadecahydro-1H-cyclopenta[a]chrysen-9-yl)cyclohex-3-ene-1-carboxylic acid]	2	18	10	10	2	41	2	21
C=C(C)[C@@H]1CC[C@]2(NCCN3CCS(=O)(=O)CC3)CC[C@]3(C)[C@H](CC[C@@H]4[C@@]5(C)CC=C(C6=CC[C@@](COc7ncccc7C(N)=O)(C(=O)O)CC6)C(C)(C)[C@@H]5CC[C@]43C)[C@@H]12 [Example 26, (S)-1-(((3-carbamoylpyridin-2-yl)oxy)methyl)-4-((1R,3aS,5aR,5bR,7aR,11aS,11bR,13aR,13bR)-3a-((2-(1,1-dioxidothiomorpholino)ethyl)amino)-5a,5b,8,8,11a-pentamethyl-1-(prop-1-en-2-yl)-2,3,3a,4,5,5a,5b,6,7,7a,8,11,11a,11b,12,13,13a,13b-octadecahydro-1H-cyclopenta[a]chrysen-9-yl)cyclohex-3-ene-1-carboxylic acid]	5	28	41	41				
C=C(C)[C@@H]1CC[C@]2(NCCN3CCS(=O)(=O)CC3)CC[C@]3(C)[C@H](CC[C@@H]4[C@@]5(C)CC=C(C6=CC[C@](COc7ncccc7C(=O)OC)(C(=O)O)CC6)C(C)(C)[C@@H]5CC[C@]43C)[C@@H]12 [Example 27]	< 50	< 50	< 50	< 50				
C=C(C)[C@@H]1CC[C@]2(NCCN3CCS(=O)(=O)CC3)CC[C@]3(C)[C@H](CC[C@@H]4[C@@]5(C)CC=C(C6=CC[C@@](COc7cccc(OC)n7)(C(=O)O)CC6)C(C)(C)[C@@H]5CC[C@]43C)[C@@H]12 [Example 28, (S)-4-((1R,3aS,5aR,5bR,7aR,11aS,11bR,13aR,13bR)-3a-((2-(1,1-dioxidothiomorpholino)ethyl)amino)-5a,5b,8,8,11a-pentamethyl-1-(prop-1-en-2-yl)-2,3,3a,4,5,5a,5b,6,7,7a,8,11,11a,11 b,12,13,13a,13b-octadecahydro-1H-cyclopenta[a]chrysen-9-yl)-1-(((6-methoxypyridin-2-yl)oxy)methyl)cyclohex-3-ene-1-carboxylic acid]	3	21	21	21				
C=C(C)[C@@H]1CC[C@]2(NCCN3CCS(=O)(=O)CC3)CC[C@]3(C)[C@H](CC[C@@H]4[C@@]5(C)CC=C(C6=CC[C@@](COc7cccc(F)n7)(C(=O)O)CC6)C(C)(C)[C@@H]5CC[C@]43C)[C@@H]12 [Example 29, (S)-4-((1R,3aS,5aR,5bR,7aR,11aS,11bR,13aR,13bR)-3a-((2-(1,1-dioxidothiomorpholino)ethyl)amino)-5a,5b,8,8,11a-pentamethyl-1-(prop-1-en-2-yl)-2,3,3a,4,5,5a,5b,6,7,7a,8,11,11a,11 b,12,13,13a,13b-octadecahydro-1H-cyclopenta[a]chrysen-9-yl)-1-(((6-fluoropyridin-2-yl)oxy)methyl)cyclohex-3-ene-1-carboxylic acid]	5	5	21	21				
C=C(C)[C@@H]1CC[C@]2(NCCN3CCS(=O)(=O)CC3)CC[C@]3(C)[C@H](CC[C@@H]4[C@@]5(C)CC=C(C6=CC[C@@](COc7cc(C(N)=O)ccn7)(C(=O)O)CC6)C(C)(C)[C@@H]5CC[C@]43C)[C@@H]12 [Example 30, (S)-1-(((4-carbamoylpyridin-2-yl)oxy)methyl)-4-((1R,3aS,5aR,5bR,7aR,11aS,11bR,13aR,13bR)-3a-((2-(1,1-dioxidothiomorpholino)ethyl)amino)-5a,5b,8,8,11a-pentamethyl-1-(prop-1-en-2-yl)-2,3,3a,4,5,5a,5b,6,7,7a,8,11,11a,11b,12,13,13a,13b-octadecahydro-1H-cyclopenta[a]chrysen-9-yl)cyclohex-3-ene-1-carboxylic acid]	< 50	< 50	< 50	< 50				
C=C(C)[C@@H]1CC[C@]2(NCCN3CCS(=O)(=O)CC3)CC[C@]3(C)[C@H](CC[C@@H]4[C@@]5(C)CC=C(C6=CC[C@@](COc7ccccn7)(C(=O)O)CC6)C(C)(C)[C@@H]5CC[C@]43C)[C@@H]12 [Example 31, (S)-4-((1R,3aS,5aR,5bR,7aR,11aS,11bR,13aR,13bR)-3a-((2-(1,1-dioxidothiomorpholino)ethyl)amino)-5a,5b,8,8,11a-pentamethyl-1-(prop-1-en-2-yl)-2,3,3a,4,5,5a,5b,6,7,7a,8,11,11a,11 b,12,13,13a,13b-octadecahydro-1H-cyclopenta[a]chrysen-9-yl)-1-((pyridin-2-yloxy)methyl)cyclohex-3-ene-1-carboxylic acid]	2	6	9	9				
C=C(C)[C@@H]1CC[C@]2(NCCN3CCS(=O)(=O)CC3)CC[C@]3(C)[C@H](CC[C@@H]4[C@@]5(C)CC=C(C6=CC[C@@](COc7cnccn7)(C(=O)O)CC6)C(C)(C)[C@@H]5CC[C@]43C)[C@@H]12 [Example 32, (S)-4-((1R,3aS,5aR,5bR,7aR,11aS,11bR,13aR,13bR)-3a-((2-(1,1-dioxidothiomorpholino)ethyl)amino)-5a,5b,8,8,11a-pentamethyl-1-(prop-1-en-2-yl)-2,3,3a,4,5,5a,5b,6,7,7a,8,11,11a,11b,12,13,13a,13b-octadecahydro-1H-cyclopentatalchrysen-9-yl)-1-((pyrazin-2-yloxy)methyl)cyclohex-3-ene-1-carboxylic acid]	< 50	< 50	< 50	< 50				
